From ChEMBL document CHEMBL4190264, “Phylogenomics of 2,4-Diacetylphloroglucinol-Producing Pseudomonas and Novel Antiglycation Endophytes from Piper auritum” (J Nat Prod, 2017)
Each block holds one molecule with its values, some of them ahead of it. Calls of active or inactive are those of the source. No cut-off for these calls is given here.

How the values were obtained:
Albumin [1] = target: T1, Albumin (Bos taurus, UniProt P02769); test: Antiglycation activity in bovine serum albumin assessed as inhibition of advanced glycated end product formation in presence of D-glucose by spectrofluorimetric analysis; settings: for inhibition (INH): cattle
T1 sequence (P02769 whole entry): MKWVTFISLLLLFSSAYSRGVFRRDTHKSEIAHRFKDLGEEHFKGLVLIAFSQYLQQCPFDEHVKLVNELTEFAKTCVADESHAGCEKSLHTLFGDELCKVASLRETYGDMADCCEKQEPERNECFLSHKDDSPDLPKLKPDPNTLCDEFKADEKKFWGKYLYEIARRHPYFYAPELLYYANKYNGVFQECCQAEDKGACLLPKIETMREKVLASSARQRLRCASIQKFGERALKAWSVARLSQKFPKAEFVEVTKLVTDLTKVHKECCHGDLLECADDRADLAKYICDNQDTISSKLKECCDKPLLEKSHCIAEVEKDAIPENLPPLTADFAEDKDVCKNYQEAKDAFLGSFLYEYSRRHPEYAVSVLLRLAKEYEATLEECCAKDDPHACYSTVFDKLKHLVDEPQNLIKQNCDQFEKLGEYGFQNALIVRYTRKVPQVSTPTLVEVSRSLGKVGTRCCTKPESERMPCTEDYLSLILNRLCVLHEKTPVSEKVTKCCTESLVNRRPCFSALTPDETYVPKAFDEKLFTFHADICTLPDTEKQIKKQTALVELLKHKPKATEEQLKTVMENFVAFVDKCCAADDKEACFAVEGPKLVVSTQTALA

Albumin [2] = target: T1, Albumin; test: Antiglycation activity in bovine serum albumin assessed as inhibition of advanced glycated end product formation in presence of D-glucose and ferulic acid by spectrofluorimetric analysis; settings: cattle
Albumin [3] = target: T1, Albumin; test: Antiglycation activity in bovine serum albumin assessed as inhibition of advanced glycated end product formation in presence of D-glucose at 10 mM by spectrofluorimetric analysis; settings: cattle
Albumin [4] = target: T1, Albumin; test: Antiglycation activity in bovine serum albumin assessed as inhibition of advanced glycated end product formation in presence of D-glucose and 5-hydroxyferulic acid by spectrofluorimetric analysis; settings: cattle
Albumin [5] = target: T1, Albumin; test: Antiglycation activity in bovine serum albumin assessed as inhibition of MGO-mediated protein modification after 5 days by PAGE analysis; settings: cattle, 120 h
[6] = Inhibition of glucose auto-oxidation after 30 mins in presence of deoxyribose by benzoate hydroxylation assay; assay type: functional
Albumin [7] = target: T2, Albumin (Homo sapiens, UniProt P02768); test: Antiglycation activity in human serum albumin assessed as inhibition of fructosamine formation by measuring amadori products after 10 to 15 mins by NBT assay
T2 sequence (P02768 whole entry): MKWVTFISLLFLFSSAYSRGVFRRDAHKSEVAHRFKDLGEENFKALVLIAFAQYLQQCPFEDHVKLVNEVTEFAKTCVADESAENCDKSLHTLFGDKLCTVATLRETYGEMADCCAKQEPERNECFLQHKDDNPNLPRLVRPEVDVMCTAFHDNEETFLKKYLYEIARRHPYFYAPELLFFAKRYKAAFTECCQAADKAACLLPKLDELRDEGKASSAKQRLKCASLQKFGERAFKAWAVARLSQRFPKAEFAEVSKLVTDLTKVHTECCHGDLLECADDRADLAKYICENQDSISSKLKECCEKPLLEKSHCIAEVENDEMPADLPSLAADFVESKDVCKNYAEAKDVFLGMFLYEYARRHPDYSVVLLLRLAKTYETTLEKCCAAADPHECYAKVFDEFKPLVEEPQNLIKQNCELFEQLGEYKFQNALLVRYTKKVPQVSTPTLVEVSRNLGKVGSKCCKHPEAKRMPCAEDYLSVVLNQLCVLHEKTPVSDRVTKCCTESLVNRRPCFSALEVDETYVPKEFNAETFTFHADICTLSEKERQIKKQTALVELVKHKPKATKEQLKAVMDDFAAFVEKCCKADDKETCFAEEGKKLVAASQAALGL

Albumin [8] = target: T2, Albumin; test: Antiglycation activity in human serum albumin assessed as inhibition of fructosamine formation by measuring amadori products after 10 to 15 mins in presence of 5-hydroxyferulic acid by NBT assay

Compound: COc1cc(/C=C/C(=O)O)cc(O)c1O
inhibition (INH) (Albumin [1]): Not Active
inhibition (INH) (Albumin [2]): Active

Compound: N=C(N)NN [PIMAGEDINE]
EC50 (Albumin [1]): 26 mM
inhibition (INH) (Albumin [3]): Active

Compound: CC(=O)c1c(O)cc(O)c(C(C)=O)c1O
inhibition (INH) (Albumin [4]): Active
EC50 (Albumin [1]): 6.3 mM
inhibition (INH) (Albumin [1]): 83%
inhibition (INH) (Albumin [5]): Active
inhibition [6]: Active
inhibition (INH) (Albumin [7]): Not Active
inhibition (INH) (Albumin [8]): Active

Compound: CCCCCCCC/C=C\CCCCCCC(=O)O
inhibition (INH) (Albumin [1]): 66%

Compound: CCCCCC/C=C\CCCCCCCCCC(=O)O [VACCENIC ACID]
inhibition (INH) (Albumin [1]): 66%

Next, values leading:

inhibition (INH) (Albumin [1]): 66%
Compound: CCCCCCCCCCCCCCCC(=O)O [PALMITIC ACID]

inhibition (INH) (Albumin [4]): Active
inhibition (INH) (Albumin [1]): Not Active
Compound: COc1cc(/C=C/C(=O)O)ccc1O [FERULATE]
